In test [1] the target is T1, human orexin 1 receptor (hOx1R) (Homo sapiens, UniProt O43613).
T1 construct: expressed in transfected cells
T1 sequence (O43613 1-425): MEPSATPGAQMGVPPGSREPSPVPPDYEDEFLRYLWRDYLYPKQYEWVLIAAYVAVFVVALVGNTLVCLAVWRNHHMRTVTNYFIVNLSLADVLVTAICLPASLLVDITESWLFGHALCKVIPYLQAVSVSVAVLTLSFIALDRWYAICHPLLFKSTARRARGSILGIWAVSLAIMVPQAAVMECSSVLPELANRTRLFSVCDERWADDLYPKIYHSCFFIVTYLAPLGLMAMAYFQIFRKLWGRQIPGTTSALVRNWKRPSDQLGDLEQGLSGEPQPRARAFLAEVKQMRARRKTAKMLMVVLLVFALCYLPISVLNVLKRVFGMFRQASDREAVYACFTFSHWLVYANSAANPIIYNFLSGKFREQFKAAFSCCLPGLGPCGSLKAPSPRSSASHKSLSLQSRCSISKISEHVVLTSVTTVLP
The test can be described thus: Calcium accumulation in cells (FLIPR), antagonism of orexin A, hOx1R. The test is classed as cell-based. Particulars: for Kd: cells expressing human orexin 1 receptor, IC50 vs orexin A converted by Cheng and Prusoff correction; for inhibition at 10 µM: measured at a concentration of 10 μM of compound (cells marked ^a). The procedure, abridged: (§1)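 Serum-starved receptor-expressing cells were loaded with Fluo-4-AM (2 μM) plus probenecid (0.1 mM) in HEPES buffer, pH 7.4, with 1% BSA, and Ca2+ fluorescence was read on FLIPR. Compounds (10^−9–10^−5 M) were added first, and orexin A was added one hour later to measure antagonism.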

Test [2] addresses T2, human orexin 2 receptor (hOx2R) (Homo sapiens, UniProt O43614).
T2 construct: expressed in transfected cells
T2 sequence (O43614 1-444): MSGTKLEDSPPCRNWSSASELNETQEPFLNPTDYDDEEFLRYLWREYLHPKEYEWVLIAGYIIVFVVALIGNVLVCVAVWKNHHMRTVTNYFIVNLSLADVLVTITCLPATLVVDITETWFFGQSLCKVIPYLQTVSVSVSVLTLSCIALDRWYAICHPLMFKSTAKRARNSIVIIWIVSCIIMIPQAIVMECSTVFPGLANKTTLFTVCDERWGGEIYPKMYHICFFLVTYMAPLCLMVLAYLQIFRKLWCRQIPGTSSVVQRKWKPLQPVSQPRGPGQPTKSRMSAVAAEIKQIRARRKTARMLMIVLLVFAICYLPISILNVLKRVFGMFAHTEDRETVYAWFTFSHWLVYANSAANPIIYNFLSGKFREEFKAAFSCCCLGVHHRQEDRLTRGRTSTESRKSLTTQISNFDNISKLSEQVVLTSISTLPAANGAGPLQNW
The test can be described thus: Calcium accumulation in cells (FLIPR), antagonism of orexin A, hOx2R. The test is classed as cell-based. To be noted: for Kd: cells expressing human orexin 2 receptor, IC50 vs orexin A converted by Cheng and Prusoff correction. The procedure, abridged:
as §1

The target of test [3] is T1, human orexin 1 receptor (hOx1R). Description: Radioligand binding assay ([125I]orexin A competition), hOx1R. To be noted: CHO or HEK cell membranes, 1 h room temperature. The protocol: (§2) For crude cell membrane preparations, cells (CHO, Chinese hamster ovary or HEK, human embryonic kidney) expressing human orexin 1 or human orexin 2 receptors, were washed with HEPES (10 mM, pH 7.5), scraped off the culture plates with the same buffer, and centrifuged at 4° C. for 5 min at 2500×g. The cell pellet was either stored at −80° C. or used directly. Before the experiments, cell membranes were re-suspended in binding assay buffer (10 mM HEPES, 0.5% (w/v) bovine serum albumin, pH 7.5) by homogenisation with a Polytron homogeniser at 50 Hz for 20 s. Cell membranes were also used as made available by commercial providers.
(§3) In initial saturation experiments (to calculate Bmax), cell homogenates (150 μl) were incubated with 25-300 pM of the radioligand ([^125I]orexin A, 50 μl), 8 concentrations in triplicates in the presence or absence Orexin A (1 μM, 50 μl) to define non specific binding. Bound radioactivity was measured, and data were analysed with the program XLFIT or Graphpad Prism. Protein concentration was determined according to the Bradford/BioRad Protein Assay Kit.
(§4) In competition experiments, cell homogenates (150 μl) were incubated in assay buffer (10 mM HEPES, pH 7.5, 0.5% (w/v) bovine serum albumin, 5 mM MgCl2, […], and tween 0.05%) for 1 h at room temperature with about […] of the radioligand ([^125I]orexin A, 2100 Ci/mmole, 50 μl), and with various concentrations of compounds of the invention (50 μl) in triplicates; non-specific binding was determined in the presence of Orexin A (1 μM). Reactions were terminated by vacuum filtration, 3 washes of ice cold wash buffer (Tris-HCl pH 7.4/10 mM, with NaCl 154 mM). Competition data is expressed in Table 1 as Kd [μM].

Test [4] addresses T2, human orexin 2 receptor (hOx2R). The test can be described thus: Radioligand binding assay ([125I]orexin A competition), hOx2R. To be noted: CHO or HEK cell membranes, 1 h room temperature. As for the experimental part: as §2, §3, §4

Turning to `CN(C(=O)c1cccc2ccccc12)[C@H](CCNC(=O)c1ccccn1)Cc1ccc(Cl)cc1` [Example 35, Pyridine-2-carboxylic acid {(S)-4-(4-chloro-phenyl)-3-[methyl-(naphthalene-1-carbonyl)-amino]-butyl}-amide], the Kd in test [1] turned out to be 80 nM; in test [2] it was 9 nM; in test [3] it was 1330 nM; in test [4], 468 nM.
For `CCCN(C(=O)c1cccc2c1OCO2)[C@H](CCNC(=O)c1ccccn1)Cc1ccccc1` [Example 59, Pyridine-2-carboxylic acid {(S)-3-[(benzo[1,3]dioxole-4-carbonyl)-propyl-amino]-4-phenyl-butyl}-amide] the same measures were 2040 nM, 562 nM, 3630 nM and 3620 nM.
On to `CN(C(=O)c1cccc2c1ccn2C)[C@H](CCNC(=O)c1ccccn1)Cc1ccccc1` [Example 40, 1-Methyl-1H-indole-4-carboxylic acid {(S)-1-benzyl-3-[(pyridine-2-carbonyl)-amino]-propyl}-methyl-amide], for which the Kd in test [1] is 193 nM; in test [2], 221 nM; in test [3], 125 nM; in test [4], 619 nM.
Take `CCN(C(=O)c1ccc2c(c1)OCO2)[C@H](CCNC(=O)c1ccccn1)Cc1ccccc1` [Example 8, Pyridine-2-carboxylic acid {(S)-3-[(benzo[1,3]dioxole-5-carbonyl)-ethyl-amino]-4-phenyl-butyl}-amide]: the equilibrium dissociation constant (Kd) was 211 nM in test [1], 32 nM in test [2], 270 nM in test [3] and 46 nM in test [4].
As for `COc1ccc(C(=O)N(C)[C@H](CCNC(=O)c2ccccn2)Cc2ccccc2)cc1` [Example 42, Pyridine-2-carboxylic acid {(S)-3-[(4-methoxy-benzoyl)-methyl-amino]-4-phenyl-butyl}-amide], the Kd in test [1] came to 909 nM; in test [2], 826 nM; in test [3], 1730 nM; in test [4], 688 nM.
For `CN(C(=O)c1cc(C(F)(F)F)cc(C(F)(F)F)c1)[C@@H](CCNC(=O)c1ccccn1)Cc1ccccc1` [Example 74, Pyridine-2-carboxylic acid {(R)-3-[(3,5-bis-trifluoromethyl-benzoyl)-methyl-amino]-4-phenyl-butyl}-amide] the same measures were 3260 nM, 1610 nM, over 10000 nM and over 10000 nM.
Take `CN(C(=O)c1ccc2c(c1)OCO2)[C@H](CCNC(=O)c1cc2ccccc2[nH]1)Cc1ccccc1` [Example 14, 1H-Indole-2-carboxylic acid {(S)-3-[(benzo[1,3]dioxole-5-carbonyl)-methyl-amino]-4-phenyl-butyl}-amide]: the Kd in test [1] turned out to be 609 nM; in test [2], 106 nM; in test [3] it was 1070 nM; in test [4], 521 nM.
As for `COc1cc(OC)cc(C(=O)N(C)[C@H](CCNC(=O)c2cccn2C)Cc2ccccc2)c1` [Example 104, 1-Methyl-1H-pyrrole-2-carboxylic acid {(S)-3-[(3,5-dimethoxy-benzoyl)-methyl-amino]-4-phenyl-butyl}-amide], the Kd is 609 nM in test [1], 4 nM in test [2], 123 nM in test [3] and 6 nM in test [4].
The like results for `CN(C(=O)c1cccc2cc[nH]c12)[C@H](CCNC(=O)c1ccccn1)Cc1ccccc1` [Example 38, 1H-Indole-7-carboxylic acid {(S)-1-benzyl-3-[(pyridine-2-carbonyl)-amino]-propyl}-methyl-amide] were, in that order, 35 nM, 162 nM, 86 nM and 590 nM.
In the case of `CN(C(=O)c1cccc2[nH]ccc12)[C@H](CCNC(=O)c1ccccn1)Cc1ccccc1` [Example 11, 1H-Indole-4-carboxylic acid {(S)-1-benzyl-3-[(pyridine-2-carbonyl)-amino]-propyl}-methyl-amide], the Kd in test [1] amounted to 22 nM; in test [2], 16 nM; in test [3] it was 21 nM; in test [4], 52 nM.
In the case of `CN(C(=O)c1cccc2ccn(C)c12)[C@H](CCNC(=O)c1ccccn1)Cc1ccccc1` [Example 36, 1-Methyl-1H-indole-7-carboxylic acid {(S)-1-benzyl-3-[(pyridine-2-carbonyl)-amino]-propyl}-methyl-amide], the inhibition at 10 µM in test [1] was 37%. Also, the dissociation constant Kd in test [2] is 565 nM; in test [3], 853 nM; in test [4], 468 nM.
`CN(C(=O)c1ccc2ccccc2c1)[C@H](CCNC(=O)c1nc2ccccc2n1C)Cc1ccccc1` [Example 44, 1-Methyl-1H-benzoimidazole-2-carboxylic acid {(S)-3-[methyl-(naphthalene-2-carbonyl)-amino]-4-phenyl-butyl}-amide]: the Kd was determined as 33 nM in test [1], 90 nM in test [2], 82 nM in test [3] and 781 nM in test [4].
For the molecule “1-Methyl-1H-pyrrole-2-carboxylic acid {(8)-3-[(3,5-difluoro-benzoyl)-methyl-amino]-4-phenyl-butyl}-amide [Example 118]”, the Kd is 1070 nM in test [1], 55 nM in test [2], 977 nM in test [3] and 76 nM in test [4].
On to `CN(C(=O)c1ccccc1)[C@H](CCNC(=O)c1ccccn1)Cc1ccc(Cl)cc1` [Example 70, Pyridine-2-carboxylic acid [(S)-3-(benzoyl-methyl-amino)-4-(4-chloro-phenyl)-butyl]-amide], for which the inhibition at 10 µM is 0% in test [1] and 29% in test [2] (measured at a concentration of 10 μM of compound (cells marked ^a)). Further, the Kd in test [3] was over 10000 nM; in test [4], 8310 nM.
Consider `CN(C(=O)c1ccc2c(c1)OCO2)[C@H](CCNC(=O)c1nc2ccccc2n1C)Cc1ccccc1` [Example 31, 1-Methyl-1H-benzoimidazole-2-carboxylic acid {(S)-3-[(benzo[1,3]dioxole-5-carbonyl)-methyl-amino]-4-phenyl-butyl}-amide], for which the Kd in test [1] worked out at 57 nM; in test [2], 43 nM; in test [3] it was 164 nM; in test [4] it was 410 nM.
As to `CN(C(=O)c1ccc2ccccc2c1)[C@@H](CCNC(=O)c1ccccn1)Cc1ccccc1` [Example 43, Pyridine-2-carboxylic acid {(R)-3-[methyl-(naphthalene-2-carbonyl)-amino]-4-phenyl-butyl}-amide], the Kd turned out to be 941 nM in test [1], 203 nM in test [2], 2250 nM in test [3] and 607 nM in test [4].
The like results for `CN(C(=O)c1ccc2[nH]ccc2c1)[C@H](CCNC(=O)c1nc2ccccc2n1C)Cc1ccccc1` [Example 81, 1-Methyl-1H-benzoimidazole-2-carboxylic acid {(S)-3-[(1H-indole-5-carbonyl)-methyl-amino]-4-phenyl-butyl}-amide] were, in that order, 12 nM, 13 nM, 6 nM and 23 nM.

Values taken from patent US20100222396A1 (Novartis AG, priority 2009, published 2010).
